Assay results: patent US20240101531A1, “PYRIDINAMINE DERIVATIVES AND THEIR USE AS POTASSIUM CHANNEL MODULATORS” (Xenon Pharmaceuticals Inc., priority 2022, published 2024)
Where a name gives a salt, the structure may show the parent alone.

Target: human KV7.2/KV7.3 (Homo sapiens (Human), UniProt O43525+O43526)
Test: Potassium flux assay (IPG-2 AM dye)
Type: cell-based
Conditions: TREX HEK 293 or HEK 293 cells expressing human KV7.2/KV7.3; arithmetic mean values
How it was run: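 HEK 293 or TREX HEK 293 cells stably expressing human KV7.2/KV7.3 (tetracycline-induced where needed), loaded with IPG-2 AM, then compound for 20 min at room temperature. Flux triggered by K challenge buffer (10 mM KCl, pH 7.4), read at 530/558 nm; EC50 from 16-point 2-fold series from 30 μM, normalised to DMSO and reference modulator.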

| EC50 [µM] | Structure (SMILES) |
| --- | --- |
| < 1 | N#CC1(COc2ccc3c(Nc4cnc(Cl)nc4)nccc3c2)CC12CC2 (stereo not shown) [Example 349, 1-(((1-((2-chloropyrimidin-5-yl)amino)isoquinolin-6-yl)oxy)methyl)spiro[2.2]pentane-1-carbonitrile] |
| 1 to 10 | Cc1cc(COc2ccc3c(Nc4ccc(Cl)nc4)nccc3c2)n[nH]1 [Example 392, N-(6-chloropyridin-3-yl)-6-((5-methyl-1H-pyrazol-3-yl)methoxy)isoquinolin-1-amine] |
| 1 to 10 | FC1(F)CN[C@@H](COc2ccc3c(Nc4ccc(Cl)nc4)nccc3c2)C1 [Example 227, (R)—N-(6-chloropyridin-3-yl)-6-((4,4-difluoropyrrolidin-2-yl)methoxy)isoquinolin-1-amine trifluoroacetate] |
| 10 to 30 | Cc1ncc(Nc2nccc3cc(OCCOC4CC4)ccc23)cn1 [Example 38, 6-(2-cyclopropoxyethoxy)-N-(2-methylpyrimidin-5-yl)isoquinolin-1-amine] |
| 10 to 30 | Clc1ccc(Nc2nccc3cc(OCCC4CC4)ccc23)cn1 [Example 180, N-(6-chloropyridin-3-yl)-6-(2-cyclopropylethoxy)isoquinolin-1-amine] |
| 1 to 10 | CC1(CNc2ccc3c(Nc4ccc(Cl)nc4)nccc3c2)COC1 [Example 245, N′-(6-chloropyridin-3-yl)-N^6-((3-methyloxetan-3-yl)methyl)isoquinoline-1,6-diamine] |
| 1 to 10 | Cc1ncc(Nc2nccc3cc(OCC4CC4)cnc23)cn1 [Example 257, 3-(cyclopropylmethoxy)-N-(2-methylpyrimidin-5-yl)-1,7-naphthyridin-8-amine] |
| 1 to 10 | Clc1ccc(Nc2nccc3cc(Cn4nccn4)ccc23)cn1 [Example 425, 6-((2H-1,2,3-triazol-2-yl)methyl)-N-(6-chloropyridin-3-yl)isoquinolin-1-amine] |
| 1 to 10 | Clc1ccc(Nc2nccc3cc(OCc4nccs4)ccc23)cn1 [Example 212, N-(6-chloropyridin-3-yl)-6-(thiazol-2-ylmethoxy)isoquinolin-1-amine] |
| 1 to 10 | CC(=O)N1CC[C@@H](Oc2ccc3c(Nc4ccc(Cl)nc4)nccc3c2)C1 [Example 112, (R)-1-(3-((1-((6-chloropyridin-3-yl)amino)isoquinolin-6-yl)oxy)pyrrolidin-1-yl)ethan-1-one] |
| 1 to 10 | Clc1ccc(Nc2nccc3cc(OC4CCN(C5COC5)CC4)ccc23)cn1 [Example 313, N-(6-chloropyridin-3-yl)-6-((1-(oxetan-3-yl)piperidin-4-yl)oxy)isoquinolin-1-amine] |
| 10 to 30 | Clc1ccc(Nc2nccc3cc(OCc4cnccn4)ccc23)cn1 [Example 94, N-(6-chloropyridin-3-yl)-6-(pyrazin-2-ylmethoxy)isoquinolin-1-amine] |
| 1 to 10 | Clc1ccc(Nc2nccc3cc(OCc4cnn(Cc5ccccc5)c4)ccc23)cn1 [Example 295, 6-((1-benzyl-1H-pyrazol-4-yl)methoxy)-N-(6-chloropyridin-3-yl)isoquinolin-1-amine] |
| 1 to 10 | Fc1ccc2c(Nc3ccc(Cl)nc3)nccc2c1 [Example 18, N-(6-chloropyridin-3-yl)-6-fluoroisoquinolin-1-amine formate] |
| < 1 | CC(=O)N[C@@H]1CCC[C@H](Oc2ccc3c(Nc4cnc(Cl)nc4)nccc3c2)C1 [Example 376, N-((1R,3S)-3-((1-((2-chloropyrimidin-5-yl)amino)isoquinolin-6-yl)oxy)cyclohexyl)acetamide] |
| 1 to 10 | Cn1cc(CCOc2ccc3c(Nc4ccc(Cl)nc4)nccc3c2)cn1 [Example 99, N-(6-chloropyridin-3-yl)-6-(2-(1-methyl-1H-pyrazol-4-yl)ethoxy)isoquinolin-1-amine] |
| 1 to 10 | Cc1ncc(Nc2nccc3cc(OCc4ccncc4)ccc23)cn1 [Example 199, N-(2-methylpyrimidin-5-yl)-6-(pyridin-4-ylmethoxy)isoquinolin-1-amine] |
| 10 to 30 | COCCN1CCC(Oc2ccc3c(Nc4ccc(Cl)nc4)nccc3c2)CC1 [Example 119, N-(6-chloropyridin-3-yl)-6-((1-(2-methoxyethyl)piperidin-4-yl)oxy)isoquinolin-1-amine] |
| ≥ 30 | Cc1ncc(Nc2nccc3cc(OCC4(F)CNC4)ccc23)cn1 [Example 58, 6-((3-fluoroazetidin-3-yl)methoxy)-N-(2-methylpyrimidin-5-yl)isoquinolin-1-amine] |
| 1 to 10 | Clc1ccc(Nc2nccc3cc(OCc4ccccn4)ccc23)cn1 [Example 5, N-(6-chloropyridin-3-yl)-6-(pyridin-2-ylmethoxy)isoquinolin-1-amine] |
| < 1 | Clc1ccc(Nc2nccc3cc(O[C@@H]4CCC5(COC5)C4)ccc23)cn1 [Example 138, (R)-6-((2-oxaspiro[3.4]octan-6-yl)oxy)-N-(6-chloropyridin-3-yl)isoquinolin-1-amine] |
| ≥ 30 | FC1(COc2ccc3c(Nc4ccc(C(F)(F)F)nc4)nccc3c2)CC1 [Example 47, 6-((1-fluorocyclopropyl)methoxy)-N-(6-(trifluoromethyl)pyridin-3-yl)isoquinolin-1-amine] |

| EC50 [µM] | Structure (SMILES) |
| --- | --- |
| < 1 | O[C@H]1CCC[C@@H](Oc2ccc3c(Nc4ccc(Cl)nc4)nccc3c2)C1 [Example 347, (1 S,3R)-3-((1-((6-chloropyridin-3-yl)amino)isoquinolin-6-yl)oxy)cyclohexan-1-ol] |
| < 1 | O[C@@H]1CCCC[C@H]1Oc1ccc2c(Nc3ccc(Cl)nc3)nccc2c1 (relative stereo) [Example 143, trans-2-((1-((6-chloropyridin-3-yl)amino)isoquinolin-6-yl)oxy)cyclohexan-1-ol] |
| 1 to 10 | FC1CN(CCOc2ccc3c(Nc4ccc(Cl)nc4)nccc3c2)C1 [Example 116, N-(6-chloropyridin-3-yl)-6-(2-(3-fluoroazetidin-1-yl)ethoxy)isoquinolin-1-amine] |
| < 1 | CC1(C)CC1(C#N)COc1ccc2c(Nc3cnc(Cl)nc3)nccc2c1 (stereo not shown) [Example 351, 1-(((1-((2-chloropyrimidin-5-yl)amino)isoquinolin-6-yl)oxy)methyl)-2,2-dimethylcyclopropane-1-carbonitrile] |
| 1 to 10 | CC(Cc1cccnc1)Oc1ccc2c(Nc3ccc(Cl)nc3)nccc2c1 (stereo not shown) [Example 106, N-(6-chloropyridin-3-yl)-6-((1-(pyridin-3-yl)propan-2-yl)oxy)isoquinolin-1-amine] |
| < 1 | FC1(COc2ccc3c(Nc4ccc(Cl)nc4)nccc3c2)CCOCC1 [Example 239, N-(6-chloropyridin-3-yl)-6-((4-fluorotetrahydro-2H-pyran-4-yl)methoxy)isoquinolin-1-amine] |
| 1 to 10 | CCCOc1ccc2c(Nc3ccc(Cl)nc3)nccc2c1 [Example 3, N-(6-chloropyridin-3-yl)-6-propoxyisoquinolin-1-amine] |
| < 1 | Clc1ccc(Nc2nccc3cc(OC4CCC45COC5)ccc23)cn1 (stereo not shown) [Example 290, 6-((2-oxaspiro[3.3]heptan-5-yl)oxy)-N-(6-chloropyridin-3-yl)isoquinolin-1-amine] |
| 1 to 10 | CC(C)(COc1ccc2c(Nc3ccc(Cl)nc3)nccc2c1)N1CCOCC1 [Example 101, N-(6-chloropyridin-3-yl)-6-(2-methyl-2-morpholinopropoxy)isoquinolin-1-amine] |
| 1 to 10 | Cc1ncc(Nc2nccc3cc(OCC4CCOC4)ccc23)cn1 (stereo not shown) [Example 25, N-(2-methylpyrimidin-5-yl)-6-((tetrahydrofuran-3-yl)methoxy)isoquinolin-1-amine] |
| 1 to 10 | Clc1ncc(Nc2nccc3cccnc23)cn1 [Example 32, N-(2-chloropyrimidin-5-yl)-1,7-naphthyridin-8-amine] |
| 1 to 10 | OC1(COc2ccc3c(Nc4ccc(Cl)nc4)nccc3c2)COC1 [Example 394, 3-(((1-((6-chloropyridin-3-yl)amino)isoquinolin-6-yl)oxy)methyl)oxetan-3-ol] |
| < 1 | N#CC1(COc2ccc3c(Nc4ccc(Cl)nc4)nccc3c2)CC2(COC2)C1 [Example 333, 6-(((1-((6-chloropyridin-3-yl)amino)isoquinolin-6-yl)oxy)methyl)-2-oxaspiro[3.3]heptane-6-carbonitrile] |
| 10 to 30 | Clc1ccc2c(Nc3ccc(Cl)nc3)nccc2c1 [Example 21, 6-chloro-N-(6-chloropyridin-3-yl)isoquinolin-1-amine] |
| 1 to 10 | CCOC(=O)C1(COc2ccc3c(Nc4ccc(Cl)nc4)nccc3c2)CC1 [Example 110, ethyl 1-(((1-((6-chloropyridin-3-yl)amino)isoquinolin-6-yl)oxy)methyl)cyclopropane-1-carboxylate] |
| 1 to 10 | FC(F)(F)OCCOc1ccc2c(Nc3ccc(Cl)nc3)nccc2c1 [Example 184, N-(6-chloropyridin-3-yl)-6-(2-(trifluoromethoxy)ethoxy)isoquinolin-1-amine] |
| < 1 | FC(F)COc1ccc2c(Nc3cnc(Cl)nc3)nccc2c1 [Example 66, N-(2-chloropyrimidin-5-yl)-6-(2,2-difluoroethoxy)isoquinolin-1-amine] |
| 1 to 10 | Clc1ccc(Nc2nccc3cc(OCc4ncco4)ccc23)cn1 [Example 211, N-(6-chloropyridin-3-yl)-6-(oxazol-2-ylmethoxy)isoquinolin-1-amine] |
| < 1 | FC(F)C1(COc2ccc3c(Nc4ccc(Cl)nc4)nccc3c2)CC1 [Example 326, N-(6-chloropyridin-3-yl)-6-((1-(difluoromethyl)cyclopropyl)methoxy)isoquinolin-1-amine] |
| 1 to 10 | CC(=O)N1CC(COc2ccc3c(Nc4ccc(Cl)nc4)nccc3c2)C1 [Example 309, 1-(3-(((1-((6-chloropyridin-3-yl)amino)isoquinolin-6-yl)oxy)methyl)azetidin-1-yl)ethan-1-one] |
| 1 to 10 | CC(Oc1ccc2c(Nc3ccc(Cl)nc3)nccc2c1)C1CC1 (stereo not shown) [Example 29, N-(6-chloropyridin-3-yl)-6-(1-cyclopropylethoxy)isoquinolin-1-amine] |
